Laboratory results taken from PMC6207715, “Determination of extended substrate specificity of the MALT1 as a strategy for the design of potent substrates and activity-based probes” (Scientific Reports, 2018).
*: point of attachment. ACC = NC(=O)Cc1cc(=O)oc2cc(N*)ccc12

Experiments:
Format in all cases: biochemical
[1] = test system: MALT1 in RAW 264.7 cell lysates; test: Labeling of active MALT1 in RAW 264.7 cell lysates; conditions: RAW 264.7 lysates pretreated with 1 µL of 10 mM mepazine, then 500 nM PKG105
Procedure: Figure 3 Probe to detect active MALT1. Panel a. Structure of the MALT1 probe (PKG105). Panel b. RAW 264.7 cell lysates were incubated with PKG105 at various concentrations. As a control, lysates were pretreated with mepazine, followed by incubation with probe. Lysates that were not treated with mepazine were also used. SDS-PAGE was performed at 165 V. Fluorescence was scanned using the 700 nm channel (LI-COR). Gels are representative of at least two replicates. TEXT PRINTED IN THE PICTURE: (a) PKG105: kobs/I = 92,000 M^-1s^-1
Twenty-five microliters of RAW 264.7 cell lysates (from 5 * 10^6 cells/mL) were incubated with PKG105 at concentrations ranging from 8 to 500 nM. As controls, cells that were not incubated with probe or cells that were pretreated with 1 µL of 10 mM mepazine were treated with 500 nM PKG105. The lysates were incubated with the probe for 30 minutes at 37 °C, followed by denaturation in 3 × SDS-loading buffer for 5 minutes at 95 °C. SDS-PAGE was performed under reducing conditions for 37 minutes at 165 V. The fluorescence signal in the gel was measured using a Li-Cor (Odyssey®) at a wavelength of 700 nm.

[2] = molecular target: T1, MALT1 (Homo sapiens, UniProt Q9UDY8); test: Kinetic assay of ACC fluorogenic substrates (kcat, Km, kcat/Km)
T1 sequence (Q9UDY8 1-824): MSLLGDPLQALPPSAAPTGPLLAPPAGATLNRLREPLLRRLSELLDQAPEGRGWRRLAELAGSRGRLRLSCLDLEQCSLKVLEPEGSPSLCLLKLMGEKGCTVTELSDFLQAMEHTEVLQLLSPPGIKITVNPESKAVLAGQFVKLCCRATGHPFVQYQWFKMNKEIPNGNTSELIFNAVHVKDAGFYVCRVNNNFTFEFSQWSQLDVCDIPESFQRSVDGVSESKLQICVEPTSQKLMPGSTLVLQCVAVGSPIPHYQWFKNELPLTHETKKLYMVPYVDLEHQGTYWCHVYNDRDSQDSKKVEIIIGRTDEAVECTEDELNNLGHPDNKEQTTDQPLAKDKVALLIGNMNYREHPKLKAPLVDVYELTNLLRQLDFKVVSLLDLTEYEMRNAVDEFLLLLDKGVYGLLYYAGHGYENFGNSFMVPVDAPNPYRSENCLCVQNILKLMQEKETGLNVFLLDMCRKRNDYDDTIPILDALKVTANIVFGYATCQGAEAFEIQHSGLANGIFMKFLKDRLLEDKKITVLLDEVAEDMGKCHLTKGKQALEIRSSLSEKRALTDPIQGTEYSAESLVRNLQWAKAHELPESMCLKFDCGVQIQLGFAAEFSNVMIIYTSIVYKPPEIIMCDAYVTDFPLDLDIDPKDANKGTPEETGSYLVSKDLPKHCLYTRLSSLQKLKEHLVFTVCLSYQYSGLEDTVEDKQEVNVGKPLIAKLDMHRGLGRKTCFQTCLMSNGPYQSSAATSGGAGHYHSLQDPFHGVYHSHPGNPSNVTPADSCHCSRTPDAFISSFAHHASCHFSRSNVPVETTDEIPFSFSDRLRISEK
Procedure: Figure 2 MALT1 substrate activity. Panel a. kcat/Km values for MALT1 substrates compared with that of the reference substrate (ALVSR). MALT1 was incubated at 37 °C for 30 minutes and added to the wells containing the substrate at varying concentrations. Relative fluorescence units were measured over time at excitation/emission wavelengths of 355/460 nm for at least 10 minutes. The data represent averages of three separate measurements, and error bars represent standard deviations. Panel b. Structure of our best (lower panel) and the reference (upper panel) MALT1 fluorogenic substrate.
All kinetic assays were performed with a Spectra Max Gemini XPS spectrofluorimeter (Molecular Devices) and 96-well Corning plates. The measurement characteristics were as follows: 37 °C, excitation/emission wavelength of 355/460 nm, cutoff of 455 nm, and varying concentrations of substrates and enzyme. The assay buffer was prepared at 23 °C and contained 50 mM HEPES (2-[4-(2-hydroxyethyl)piperazin-1-yl]ethanesulfonic acid), 100 mM NaCl, 0.9 M sodium citrate and 10 mM dithiothreitol (DTT) (pH 7.5). MALT1^FL or MALT1^CD were preincubated for 30 minutes at 37 °C before being added to wells containing substrate. Next, the increase in fluorescence was recorded over the time. Only the linear portions of the curves were used for calculations. The kcat and Km values were calculated using GraphPad Prism and Microsoft Excel software. All measurements were repeated three times, and the data presented are averages of these replicates. […]
was carried out after each coupling and Fmoc deprotection step. The N terminus was protected with an acetyl group using 5 eq AcOH, 5 eq HBTU, and 5 eq DIPEA in DMF.
After solvent removal, the resin was washed six times with DMF in order to remove excess reagents, three times with DCM, and three times with MeOH and then dried over P2O5 and cleaved from the resin with a TFA/TIPS/H2O mixture (%, v/v/v, 95:2.5:2.5).
The crude product was purified by HPLC and lyophilized. The purity of each substrate was confirmed by analytical HPLC, and each substrate was analyzed using HRMS.
Substrates were dissolved in peptide-grade DMSO to a concentration of 20 mM and stored at -80°C until use.
Calculation of kcat, Km and kcat/Km values
Kinetic parameters were calculated under the same conditions as the library with slight modification. The total reaction volume in each well was 100 μL. The substrate and enzyme concentrations used ranged from 3.90 μM to 150 μM and 40 μM, respectively.
The increase in relative fluorescence units was monitored for 20-30 minutes, and only the linear parts of the curves were used to determine the rate of the reaction. The kcat and Km values were calculated using GraphPad Prism software. All measurements were repeated three times using the appropriate concentration of the enzyme, and the data presented are averages of these repetitions.

[3] = molecular target: T1, MALT1; test: P5 library screening (Ac-P5-LVSR-ACC); conditions: 100 nM MALT1, 1 µM substrate, 37 °C; 355/460 nm; average of three
Procedure: Figure 1 MALT1 S5-S2 substrate preferences. Panel a. Substrate preferences of the MALT1 S4-S2 pockets; 100 μM library component was treated with 130 nM active site-titrated MALT1 in assay buffer containing 50 mM HEPES, 100 mM NaCl, 0.9 M sodium citrate and 10 mM DTT at pH 7.5. Panel b. Structures of the preferred amino acid residues at the P4-P2 positions of MALT1. Panel c. MALT1 P5 specificity. Specificity profile of MALT1 was determined with the library of general structure Ac-P5-LVSR-ACC; 100 nM MALT1 was incubated at 37 °C for 10 minutes, followed by the addition of 1 µM substrate. Relative fluorescence units were measured over time at excitation/emission wavelengths of 355/460 nm for at least 10 minutes. The data represent averages of three separate measurements, and error bars represent standard deviations.

[4] = 37 °C, 50 mM HEPES, 100 mM NaCl, 0.9 M sodium citrate, 10 mM DTT, pH 7.5, substrate 3.90-150 μM, ACC fluorescence 355/460 nm, average of three measurements

CN1CCCC(CN2c3ccccc3Sc3ccccc32)C1 (stereo not shown) [Mepazine, reference compound]
effect of inhibitor pretreatment on probe labeling [1]: inhibited MALT1

Ac-ALVSR-{ACC} (SMILES CC(=O)N[C@@H](C)C(=O)N[C@@H](CC(C)C)C(=O)N[C@H](C(=O)N[C@@H](CO)C(=O)N[C@@H](CCCNC(=N)N)C(=O)Nc1ccc2c(CC(N)=O)cc(=O)oc2c1)C(C)C) [Ac-Ala-LVSR-ACC, reference compound]
Km [2, 4]: 9.45 ± 2.46 µM | kcat [2, 4]: 0.089 ± 0.033 s⁻¹

Ac-KLVSR-{ACC} (SMILES CC(=O)N[C@@H](CCCCN)C(=O)N[C@@H](CC(C)C)C(=O)N[C@H](C(=O)N[C@@H](CO)C(=O)N[C@@H](CCCNC(=N)N)C(=O)Nc1ccc2c(CC(N)=O)cc(=O)oc2c1)C(C)C) [Ac-Lys-LVSR-ACC]
Km [2, 4]: 25.5 ± 3.56 µM | kcat [2, 4]: 0.12 ± 0.0010 s⁻¹

Ac-Phe(guan)-LVPR-ACC-OH
kcat/Km [2, 4]: 28,000 s^−1M^−1 | rate of substrate hydrolysis (kcat/Km) ([2]; estimated): 28,000 M^−1s^−1 | kcat/Km relative to the best reported substrate to date ([2]; times higher): approximately 3.5 times

Ac-RLVSR-{ACC} (SMILES CC(=O)N[C@@H](CCCNC(=N)N)C(=O)N[C@@H](CC(C)C)C(=O)N[C@H](C(=O)N[C@@H](CO)C(=O)N[C@@H](CCCNC(=N)N)C(=O)Nc1ccc2c(CC(N)=O)cc(=O)oc2c1)C(C)C) [Ac-Arg-LVSR-ACC]
Km [2, 4]: 19.06 ± 0.05 µM | kcat [2, 4]: 0.12 ± 0.0003 s⁻¹

Ac-TLVSR-{ACC} (SMILES CC(=O)N[C@H](C(=O)N[C@@H](CC(C)C)C(=O)N[C@H](C(=O)N[C@@H](CO)C(=O)N[C@@H](CCCNC(=N)N)C(=O)Nc1ccc2c(CC(N)=O)cc(=O)oc2c1)C(C)C)[C@@H](C)O) [Ac-Thr-LVSR-ACC]
Km [2, 4]: 22.4 ± 9.94 µM | kcat [2, 4]: 0.12 ± 0.0050 s⁻¹

Ac-Y(Bzl)-L-V-S-R-ACC-OH
activity at the P5 position in the library screen [3]: least active
